Measurements published in patent US20150175655A1 (priority 2012, published 2015).
Where two headings read alike, the source gives them in different places.

Key:
[1] = test system: genotype 1a transient HCV replicon, NS3/4a protease inhibitor resistant variant R155K, in Huh-7-derived cells; test: Transient-transfected HCV replicon EC50, genotype 1a R155K; assay type: cell-based; settings: Hepatitis C virus, 72 h, read-out: EC50 1A R155K
[2] = test system: genotype 1a (H77) wild-type transient HCV replicon in Huh-7-derived cells; test: Transient-transfected HCV replicon EC50, genotype 1a wild type; assay type: cell-based; settings: Hepatitis C virus; transient-transfected replicon genotype 1a wild type, 72 h; read-out: EC50 1A WT
[3] = test system: genotype 4a stable HCV replicon (ED43 strain) in Huh-7-derived cells; test: Stable subgenomic HCV replicon EC50, genotype 4a (Renilla luciferase); assay type: cell-based; settings: Hepatitis C virus, 72 h, read-out: EC50 4A RLUC
Description: (§1) Antiviral potency (EC50) was determined in both stable subgenomic HCV replicon cell lines and transient-transfected HCV replicon cells. The term half maximal effective concentration (EC50) refers to the concentration of a drug which induces a response halfway between the baseline and maximum after the exposure time specified below.
(§2) Stable subgenomic HCV replicons for genotype 1a, 1 b, 2a, 3a, and 4a were established in Huh-7-derived cells as described by Lohmann et al (Lohmann V, Korner F, Koch J, et al Replication of subgenomic hepatitis C virus RNAs in a hepatoma cell line. Science 1999; 285:119-3). Each stable cell line contains a bicistronic HCV replicon that encodes a humanized Renilla luciferase (hRLuc) reporter gene fused to a selectable neomycin-resistance gene, followed by an EMCV IRES and the NS3-NS5B coding region of HCV. […] Luciferase activity was measured as a marker for intracellular HCV replication levels.
(§3) The genotype 1a stable replicon was derived from the H77 HCV strain and contained adaptive mutations P1496L and S2204I. The genotype 1 b stable replicon was derived from the Cont HCV strain and contained adaptive mutations E1202G, T1280I, and K1846T. […] The genotype 3a stable replicon was derived from the S52 HCV strain and contained adaptive mutations P1121 L, A1198T and S2210I (equivalent to S2204I in genotype 1). The genotype 4a stable replicon was derived from the ED43 HCV strain and contained adaptive mutations Q1691R and S2204I. All replicon cell lines were propagated in Huh-7-derived cells and maintained in Dulbecco's modified Eagle's Medium (DMEM) supplemented with 10% fetal bovine serum (FBS) and 0.5 mg/mL G418.
(§4) To perform EC50 assays, cells from each HCV replicon were dispensed into 384-well plates. Compounds were dissolved in DMSO at a concentration of 10 mM and diluted in DMSO using an automated pipetting instrument. Three-fold serially diluted compounds were directly added to the cells using an automated instrument. […] Seventy-two hours later, cells were lysed and Renilla luciferase activity were quantified as recommended by the manufacturer (Promega-Madison, Wis.). Non-linear regression was performed to calculate EC50 values.

[4] = test system: genotype 1b (Con1) wild-type transient HCV replicon in Huh-7-derived cells; test: Transient-transfected HCV replicon EC50, genotype 1b wild type; assay type: cell-based; settings: Hepatitis C virus; transient-transfected replicon genotype 1b wild type, 72 h; read-out: EC50 1B WT
[5] = test system: genotype 1b stable HCV replicon in Huh-7-derived cells; test: Stable subgenomic HCV replicon EC50, genotype 1b (Renilla luciferase); assay type: cell-based; settings: Hepatitis C virus, stable replicon genotype 1b, 72 h, read-out: EC50 1B RLUC
Description: as §1, §2, §3, §4

[6] = test system: genotype 2a stable HCV replicon (JFH-1 strain) in Huh-7-derived cells; test: Stable subgenomic HCV replicon EC50, genotype 2a (Renilla luciferase); assay type: cell-based; settings: Hepatitis C virus, stable replicon genotype 2a, 72 h, read-out: EC50 2A RLUC
Description: as §1, §2, §3, §4

[7] = test system: genotype 1a stable HCV replicon (H77 strain) in Huh-7-derived cells; test: Stable subgenomic HCV replicon EC50, genotype 1a (Renilla luciferase); assay type: cell-based; settings: Hepatitis C virus, stable replicon genotype 1a, 72 h, read-out: EC50 1A RLUC
Description: as §1, §2, §3, §4

[8] = test system: genotype 1b transient HCV replicon, NS3/4a protease inhibitor resistant variant D168A, in Huh-7-derived cells; test: Transient-transfected HCV replicon EC50, genotype 1b D168A; assay type: cell-based; settings: Hepatitis C virus, 72 h, read-out: EC50 1B D168A
[9] = test system: genotype 3a stable HCV replicon (S52 strain) in Huh-7-derived cells; test: Stable subgenomic HCV replicon EC50, genotype 3a (Renilla luciferase); assay type: cell-based; settings: Hepatitis C virus, 72 h, read-out: EC50 3A RLUC
Description: as §1, §2, §3, §4

[10] = rcm bond, Zhan 1B, DCE

## CC[C@@H]1[C@@H]2CN(C(=O)[C@H](C(C)(C)C)NC(=O)O[C@@]3(C(F)(F)F)CCC[C@H]3CCCCCc3nc4ccc(OC)cc4nc3O2)[C@@H]1C(=O)N[C@]1(C(=O)NS(=O)(=O)C2CC2)C[C@H]1C(F)F [Example 12, (7S,10S,11S,12R)-7-tert-butyl-N-[(1R,2R)-1-[(cyclopropylsulfonyl)carbamoyl]-2-(difluoromethyl)cyclopropyl]-11-ethyl-16-methoxy-5,8-dioxo-3a5-(trifluoromethyl)-1,2,3,3a,5,6,7,8,11,12,20,21,22,23,24,24a-hexadecahydro-10H-9,12-methanocyclopenta[18,19][1,10,3,6]dioxadiazacyclononadecino[11,12-b]quinoxaline-10-carboxamide]
[1]
  EC50: 283 nM
[2]
  EC50: 14 nM
[3]
  EC50: 21 nM
[4]
  EC50: 5.7 nM
[5]
  EC50: 18 nM
[6]
  EC50: 25 nM
[7]
  EC50: 34 nM
[8]
  EC50: 640 nM
[9]
  EC50: 2010 nM

## CC[C@@H]1[C@@H]2CN(C(=O)[C@H](C(C)(C)C)NC(=O)O[C@]3(C(F)(F)F)CCC[C@H]3CCCCCc3nc4ccc(OC)cc4nc3O2)[C@@H]1C(=O)N[C@]1(C(=O)NS(=O)(=O)C2CC2)C[C@H]1C(F)F [Example 11, (7S,10S,11S,12R)-7-tert-butyl-N-[(1R,2R)-1-[(cyclopropylsulfonyl)carbamoyl]-2-(difluoromethyl)cyclopropyl]-11-ethyl-16-methoxy-5,8-dioxo-3aR-(trifluoromethyl)-1,2,3,3a,5,6,7,8,11,12,20,21,22,23,24,24a-hexadecahydro-10H-9,12-methanocyclopenta[18,19][1,10,3,6]dioxadiazacyclononadecino[11,12-b]quinoxaline-10-carboxamide]
[1]
  EC50: 159 nM
[2]
  EC50: 20 nM
[3]
  EC50: 19 nM
[4]
  EC50: 9.4 nM
[5]
  EC50: 17 nM
[6]
  EC50: 34 nM
[7]
  EC50: 28 nM
[8]
  EC50: 605 nM
[9]
  EC50: 1160 nM

## COc1ccc2nc3c(nc2c1)O[C@H]1CN(C(=O)[C@H](C(C)(C)C)NC(=O)O[C@@H]2CCN(C(C)=O)C2CCCCC3)[C@H](C(=O)N[C@]2(C(=O)NS(=O)(=O)C3(C)CC3)C[C@H]2C(F)F)[C@@H]1C (stereo partly drawn) [Example 80, (3aR,7S,10S,11S,12R)-1-acetyl-7-tert-butyl-N-[(1R,2R)-2-(difluoromethyl)-1-{[(1-methylcyclopropyl)sulfonyl]carbamoyl}cyclopropyl]-16-methoxy-11-methyl-5,8-dioxo-1,2,3,3a,5,6,7,8,11,12,20,21,22,23,24,24a-hexadecahydro-10H-9,12-methanopyrrolo[2′,3′:18,19][1,10,3,6]dioxadiazacyclononadecino[11,12-b]quinoxaline-10-carboxamide]
[9]
  EC50: ≥ 44400 nM

## COc1ccc2nc3c(nc2c1)O[C@H]1CN(C(=O)[C@H](C(C)(C)C)NC(=O)O[C@@H]2C[C@@H]4C[C@@H]4[C@H]2CCCC=C3)[C@H](C(=O)OC(C)(C)C)[C@@H]1C
[10]; from C=CCCCC1C(OC(=O)N[C@H](C(=O)N2C[C@H](Oc3nc4cc(OC)ccc4nc3C=C)[C@@H](C)[C@H]2C(=O)OC(C)(C)C)C(C)(C)C)CC2CC21, 2.91 mM, 85.0 °C, 1.75 h
  ring closure, yield of all isomers: 33.1%

## CC[C@@H]1[C@@H]2CN(C(=O)[C@H](C(C)(C)C)NC(=O)OC3(C(F)(F)F)CCCC3CCCC=Cc3nc4ccc(OC)cc4nc3O2)[C@@H]1C(=O)OC(C)(C)C (some centres unmarked)
[10]; from C=CCCCC1CCCC1(OC(=O)N[C@H](C(=O)N1C[C@H](Oc2nc3cc(OC)ccc3nc2C=C)[C@@H](CC)[C@H]1C(=O)OC(C)(C)C)C(C)(C)C)C(F)(F)F, 5.0 mM, 100.0 °C, 0.5 h
  ring closure, yield of all isomers: 84.7%

## COC(=O)[C@@H]1[C@H](C2CC2)[C@@H]2CN1C(=O)[C@H](C(C)(C)C)NC(=O)O[C@@H]1C[C@H]1CCCC=Cc1nc3ccc(OC)cc3nc1O2
[10]; from C=CCCC[C@@H]1C[C@H]1OC(=O)N[C@H](C(=O)N1C[C@H](Oc2nc3cc(OC)ccc3nc2C=C)[C@@H](C2CC2)[C@H]1C(=O)OC)C(C)(C)C, 4.96 mM, 83.0 °C, 0.83 h
  ring closure, yield of all isomers: 39%

## CC[C@@H]1[C@@H]2CN(C(=O)[C@H](C(C)(C)C)NC(=O)O[C@]3(C)CCC[C@H]3CCCC=Cc3nc4ccc(OC)cc4nc3O2)[C@@H]1C(=O)OC
[10]; from C=CCCC[C@@H]1CCC[C@@]1(C)OC(=O)N[C@H](C(=O)N1C[C@H](Oc2nc3cc(OC)ccc3nc2C=C)[C@@H](CC)[C@H]1C(=O)OC)C(C)(C)C, 19.9 mM, 80.0 °C, […]
  ring closure, yield of all isomers: 77.2%
